# Earlier results, collected in patent publication US10792481B2, “Implantable drug delivery device” (Nano Precision Medical, Inc., priority 2014, dated 2020).
# Conditions: 37° C., 0.2 atmosphere partial pressure
smiles,measurement,value
O=O [oxygen],solubility of oxygen in water,about 7 mg/liter
